What follows are compounds tested against T1, β-lactamase (Enterobacter cloacae, UniProt P05364) (assay: β-lactamase inhibition (iodometric absorbance at 575 nm; β-lactamase solution obtained by ultrasonic destruction of microbial cells)). Conditions: Enterobacter cloacae used as the β-lactamase-producing microorganism; pH 7.0, 30° C., 20 minutes; sample concentration not given.
T1 construct: obtained by destruction of the microbial cells with ultrasonic waves; endogenous in cells
Type: biochemical
Protocol: A phosphate buffer solution (pH 7.0, 0.5M, 0.2 ml), a sample*, which is a β-lactamase inhibiting agent, dissolved in the same buffer solution as mentioned above, and water (10 ml) were put in a test tube. In this tube, ampicillin (2 mM, 0.2 ml) in the case of penicillinase, and cephaloridine (2 mM, 0.2 ml) in the case of cephalosporinase, were added. This mixture was stirred moderately for 5 minutes at 30° C. in a thermostat. Microbial cells producing β-lactamase were collected, washed and suspended in the same buffer solution as above and thereto a β-lactamase solution (0.1 ml) obtained by destruction of the microbial cells with ultrasonic waves was added and reacted for 20 minutes.
The reaction was stopped by adding sodium tungstate (0.15M, pH 4.0, 1 ml) and an iodo reagent (3 ml) having iodine (0.1 mM), potassium iodide (1.6 mM) and 0.4% starch solution, (pH 6.0) was added thereto and was allowed to stand for 20 minutes. The absorbance was determined at 575 nm.
On the other hand, the same experiment as above without the sample (Control) was carried out and the absorbances were determined in the same manner as above.
From each determined value as obtained above, the difference between the absorbance of the blank and that of the sample, referred to as As, and the difference between the absorbance of the blank and that of the Control referred to as AB were obtained, and therefrom the inhibiting ratio was calculated by the following equation:
Inhibiting Ratio(%)=(AS/AB)×100
Some of the results as obtained above, in which Enterobacter cloacae was used as the β-lactamase-producing microorganism was used are as follows: […]

T1 sequence (P05364 21-381): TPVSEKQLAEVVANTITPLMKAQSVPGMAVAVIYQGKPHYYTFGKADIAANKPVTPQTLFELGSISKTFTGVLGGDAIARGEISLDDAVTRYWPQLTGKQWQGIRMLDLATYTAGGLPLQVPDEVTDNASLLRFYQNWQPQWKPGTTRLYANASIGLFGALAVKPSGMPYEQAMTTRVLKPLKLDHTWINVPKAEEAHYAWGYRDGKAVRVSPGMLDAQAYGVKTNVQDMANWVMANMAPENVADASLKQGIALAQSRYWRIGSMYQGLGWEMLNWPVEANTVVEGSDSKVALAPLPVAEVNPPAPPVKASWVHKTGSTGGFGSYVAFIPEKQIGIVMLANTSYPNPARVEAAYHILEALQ

Row | SMILES | Inhibiting Ratio (%)
1 | COC(=O)C(C(=O)O)N1C(=O)CC1SC (stereo not shown) [Sample 1, 1-(1-carboxy-1-methyoxycarbonylmethyl)-4-methylthio-2-azetidinone] | 46.2%
2 | COC(=O)C(C(=O)O)N1C(=O)CC1S(C)(=O)=O (stereo not shown) [Sample 2, 1-(1-carboxy-1-methoxycarbonylmethyl)-4-methylsulfonyl-2-azetidinone] | 51.4%
3 | CC(C)=C(C(=O)O)N1C(=O)[C@@H](NC(=O)[C@H](N)c2ccccc2)[C@H]1S(C)(=O)=O [Sample 3, (3R,4R)-1-(1-carboxy-2-methylprope-1-nyl)-4-methylsulfonyl-3-[D-(-)-α-aminophenylacetamide]-2-azetidinone] | 27.6%
4 | CC(C)=C(C(=O)O)N1C(=O)[C@@H](N)[C@H]1S(C)(=O)=O [Sample 4, (3R, 4R)-1-(1-carboxy-2-methylprope-1-nyl)-4-methylsulfonyl-3-amino-2-azetidinone] | 35.8%
